Assay results reported in patent publication US5541310A, “Herbicide resistant plants” (Ciba-Geigy Corporation, priority 1994, dated 1996).

Experiments:
[1] = tested on: Leaf disks of transgenic Nicotiana tabacum lines IGPD-C, E, and G; experiment: Leaf disk growth (weight) on MS agar containing IGPD inhibitor, transgenic lines versus wild type; assay type: in vivo, Nicotiana tabacum cv. Xanthi-nc; settings: 30 ppm inhibitor on MS agar, after three weeks
Source text: Leaf disks of Nicotiana tabacum cv. Xanthi-nc were infected with A. tumefaciens CIB542 harboring pCIB200IGPD as described by Horsch et al, Science 227:1229 (1985). Kanamycin-resistant shoots from 15 independent leaf disks were transferred to rooting medium, then transplanted to soil and the resulting plants grown to maturity in the greenhouse. Seed from these plants were collected and germinated on MS agar medium containing kanamycin. Ten individual kanamycin resistant seedlings from each independent primary transformant were grown to maturity in the greenhouse, and their seed collected. These seeds were germinated on MS agar medium conta/ning kanamycin.
Plant lines that gave rise to exclusively kanamycin resistant seedlings were homozygous for the inserted gene and were subjected to further analysis. Leaf disks of each of the 15 independent transgenie lines were excised with a paper punch and placed onto MS agar containing 0 or 30 ppm of a specific IGPD inhibitor represented by formula (II), namely: [drawing 11] After three weeks, two sets of 10 disks from each line were weighed, and the results recorded. Transgenie lines designated IGPD-C, E, and G were approximately 3-fold more resistant to the inhibitor than wild type, non-transformed plants.

Xanthi (untransformed) = experiment: Greenhouse plants treated with inhibitor, health visually scored; assay type: in vivo, Nicotiana tabacum cv. Xanthi-nc; set-up: key: 1 = severe stunting, severe chlorosis combined with necrosis; 2 = severe stunting, some interveinal chlorosis; 3 = moderate stunting, some interveinal chlorosis, pinnate leaves; 4 = moderate stunting, normal leaf morphology; 5 = healthy, with no symptoms
Method: (§1) To further evaluate resistance of the IGPD-overexpressing line IGPD-G, plants were grown in the greenhouse and treated with various concentrations of the inhibitor IRL 1803. After treatment, plants were photographed, and their health was visually scored.

[2] = tested on: IGPD-G (IGPD-overexpressing line); experiment: as above; assay type: in vivo, Nicotiana tabacum cv. Xanthi-nc; set-up: key: 1 = severe stunting, severe chlorosis combined with necrosis; 2 = severe stunting, some interveinal chlorosis; 3 = moderate stunting, some interveinal chlorosis, pinnate leaves; 4 = moderate stunting, normal leaf morphology; 5 = healthy, with no symptoms
Method: as §1

wheat germ IGPD = experiment: IGPD enzyme activity / inhibitor assay with purified wheat germ IGPD; assay type: biochemical
Method: Purified IGPD may be used in assays to discover novel inhibitors of the enzyme, which inhibitors potentially would function as commercially viable herbicides. Typically, the inhibitory effect of a chemical on IGPD is determined by the absorbance difference at 370 nm using an absorbance coefficient of 10,400, which signifies the production of IAP from IGP. See, Ames et al., J. Biol. Chem. 212:687-697 (1957). Inhibitor solutions in various concentrations, e.g. 1 mM, 100 μM, 10 μM, and 1 μM, are added to the reaction mixture prior to the initiation of the enzyme reaction. A representative reaction mixture contains 50 mM Bis-Tris-propane-HCl (pH 6.6), 100 mM 2-mercaptoethanol, 1 mM MnCl2, 1 mM IGP, and between 2 and 5 mU of IGPD. Once IGP is added, the reaction is rim at 30° C., and is stopped by the addition of perchlorie acid up to 10% volume of the reaction mixture. […] Five volumes of 5N NaOH are added to the solution, and after two minutes, enolized IA is measured spectroscopically. […]
IGPD activity was determined by measuring imidazoleacetol obtained by hydrolyzing IAP. […] Five volumes of 5N NaOH were added to the solution, and after 2 minutes, the concentration of enolized imidazoleacetol was determined from the absorbance at 370 nm using the absorbance coefficient of 10,400 (Ames and Mitchell, 1955). […]

Question: Which “resistance to the inhibitor relative to wild type, non-transformed plants (leaf disk weight)” value [1] does the source give for `O=P(O)(O)C1CCCC(O)(c2ncn[nH]2)C1` (stereo not shown) here?
Answer: The value was “approximately 3 fold”.

Question: Which “Visual Score after Treatment” value (Xanthi (untransformed); 1000 ppm) does the source give for `O=P(O)(O)[C@@H]1CCC[C@](O)(c2ncn[nH]2)C1` [IRL 1803] here?
Answer: Its value is 3.

Question: And the “Visual Score after Treatment” value (Xanthi (untransformed); 10000 ppm)?
Answer: Its value is 1.

Question: And the “Visual Score after Treatment” value ([2]; 1000 ppm)?
Answer: The value was 4.

Question: What about the “Visual Score after Treatment” value ([2]; 10000 ppm) of the same compound?
Answer: The value was 2.

Question: What does the source list for `[Mn+2]` [manganese ions]?
Answer: enhancement of the activity of the enzyme (wheat germ IGPD; manganese ions at a concentration of 0.5 mM): 7 fold; Km (wheat germ IGPD; read-out: Km value for Mn2+): ~110 µM
